Laboratory results reported in the supplement of paper PMC13380429.

Columns and labels:
Conditions in all cases: 72 h
Caco-2 [1] = test: cell viability relative to DMSO; higher = less toxic
Calu-3 [2] = test: as above
HepG2 [3] = test: as above
U2OS [4] = test: as above
Vero E6 [5] = test: as above
Caco-2 [6] = test: relative viability EC50 (midpoint between 100% and the lowest measured viability); higher = less toxic
HepG2 [7] = test: as above
U2OS [8] = test: as above
Vero E6 [9] = test: as above
Caco-2 [10] = test: drug sensitivity score (DSS) for viability; higher = more toxic; extreme values may be limits of the assay
Calu-3 [11] = test: as above
HepG2 [12] = test: as above
U2OS [13] = test: as above
Vero E6 [14] = test: as above
Calu-3 [15] = test: relative viability EC50 (midpoint between 100% and the lowest measured viability); higher = less toxic

## O=C(CCCCCCC(=O)NO)NO [SBHA]
Caco-2 [1]; 1 nM
  cell viability: 95.6%
Caco-2 [1]; 10 nM
  cell viability: 99.4%
Caco-2 [1]; 100 nM
  cell viability: 109%
Caco-2 [1]; 1000 nM
  cell viability: 98.1%
Caco-2 [1]; 10000 nM
  cell viability: 86.7%
Calu-3 [2]; 1 nM
  cell viability: 104%
Calu-3 [2]; 10 nM
  cell viability: 95.9%
Calu-3 [2]; 100 nM
  cell viability: 86.4%
Calu-3 [2]; 1000 nM
  cell viability: 90.1%
Calu-3 [2]; 10000 nM
  cell viability: 72.6%
HepG2 [3]; 1 nM
  cell viability: 104%
HepG2 [3]; 10 nM
  cell viability: 96.9%
HepG2 [3]; 100 nM
  cell viability: 105%
HepG2 [3]; 1000 nM
  cell viability: 94.4%
HepG2 [3]; 10000 nM
  cell viability: 48.7%
U2OS [4]; 1 nM
  cell viability: 104%
U2OS [4]; 10 nM
  cell viability: 96.3%
U2OS [4]; 100 nM
  cell viability: 100%
U2OS [4]; 1000 nM
  cell viability: 98.2%
U2OS [4]; 10000 nM
  cell viability: 81.7%
Vero E6 [5]; 1 nM
  cell viability: 106%
Vero E6 [5]; 10 nM
  cell viability: 99.8%
Vero E6 [5]; 100 nM
  cell viability: 99.6%
Vero E6 [5]; 1000 nM
  cell viability: 102%
Vero E6 [5]; 10000 nM
  cell viability: 80.4%
Caco-2 [6]
  relative viability EC50: > 10 µM
HepG2 [7]
  relative viability EC50: 2.27 µM
U2OS [8]
  relative viability EC50: > 10 µM
Vero E6 [9]
  relative viability EC50: > 10 µM
Caco-2 [10]
  drug sensitivity score: 0.2
Calu-3 [11]
  drug sensitivity score: 2.4
HepG2 [12]
  drug sensitivity score: 3.6
U2OS [13]
  drug sensitivity score: 0.7
Vero E6 [14]
  drug sensitivity score: 0.4

## O=C(NO)c1ccc2[nH]c(=O)c(CCCc3ccccc3)nc2c1 [TCS-2210]
Caco-2 [1]; 1 nM
  cell viability: 94.2%
Caco-2 [1]; 10 nM
  cell viability: 95.8%
Caco-2 [1]; 100 nM
  cell viability: 101%
Caco-2 [1]; 1000 nM
  cell viability: 94.8%
Caco-2 [1]; 10000 nM
  cell viability: 96.4%
Calu-3 [2]; 1 nM
  cell viability: 136%
Calu-3 [2]; 10 nM
  cell viability: 93.7%
Calu-3 [2]; 100 nM
  cell viability: 98%
Calu-3 [2]; 1000 nM
  cell viability: 78.4%
Calu-3 [2]; 10000 nM
  cell viability: 62%
HepG2 [3]; 1 nM
  cell viability: 108%
HepG2 [3]; 10 nM
  cell viability: 96.5%
HepG2 [3]; 100 nM
  cell viability: 100%
HepG2 [3]; 1000 nM
  cell viability: 94.7%
HepG2 [3]; 10000 nM
  cell viability: 39.9%
U2OS [4]; 1 nM
  cell viability: 99.1%
U2OS [4]; 10 nM
  cell viability: 96.3%
U2OS [4]; 100 nM
  cell viability: 102%
U2OS [4]; 1000 nM
  cell viability: 94.4%
U2OS [4]; 10000 nM
  cell viability: 66.8%
Vero E6 [5]; 1 nM
  cell viability: 87.5%
Vero E6 [5]; 10 nM
  cell viability: 96.1%
Vero E6 [5]; 100 nM
  cell viability: 89%
Vero E6 [5]; 1000 nM
  cell viability: 98.4%
Vero E6 [5]; 10000 nM
  cell viability: 101%
Caco-2 [6]
  relative viability EC50: > 10 µM
HepG2 [7]
  relative viability EC50: 2.44 µM
Vero E6 [9]
  relative viability EC50: > 10 µM
Caco-2 [10]
  drug sensitivity score: 0
Calu-3 [11]
  drug sensitivity score: 4.3
HepG2 [12]
  drug sensitivity score: 4.1
U2OS [13]
  drug sensitivity score: 2.4
Vero E6 [14]
  drug sensitivity score: 0

## Oc1nc(-c2ccc(C(F)(F)F)cc2)nc2c1CSCC2 [XAV-939]
Caco-2 [1]; 1 nM
  cell viability: 103%
Caco-2 [1]; 10 nM
  cell viability: 97%
Caco-2 [1]; 100 nM
  cell viability: 99.8%
Caco-2 [1]; 1000 nM
  cell viability: 92.3%
Caco-2 [1]; 10000 nM
  cell viability: 101%
Calu-3 [2]; 1 nM
  cell viability: 110%
Calu-3 [2]; 10 nM
  cell viability: 94%
Calu-3 [2]; 100 nM
  cell viability: 97.1%
Calu-3 [2]; 1000 nM
  cell viability: 84.1%
Calu-3 [2]; 10000 nM
  cell viability: 71.7%
HepG2 [3]; 1 nM
  cell viability: 101%
HepG2 [3]; 10 nM
  cell viability: 108%
HepG2 [3]; 100 nM
  cell viability: 98.2%
HepG2 [3]; 1000 nM
  cell viability: 99.7%
HepG2 [3]; 10000 nM
  cell viability: 94.4%
U2OS [4]; 1 nM
  cell viability: 105%
U2OS [4]; 10 nM
  cell viability: 101%
U2OS [4]; 100 nM
  cell viability: 101%
U2OS [4]; 1000 nM
  cell viability: 99.2%
U2OS [4]; 10000 nM
  cell viability: 96.4%
Vero E6 [5]; 1 nM
  cell viability: 94.6%
Vero E6 [5]; 10 nM
  cell viability: 98.5%
Vero E6 [5]; 100 nM
  cell viability: 97%
Vero E6 [5]; 1000 nM
  cell viability: 90.4%
Vero E6 [5]; 10000 nM
  cell viability: 69.6%
Caco-2 [6]
  relative viability EC50: > 10 µM
HepG2 [7]
  relative viability EC50: > 10 µM
U2OS [8]
  relative viability EC50: > 10 µM
Caco-2 [10]
  drug sensitivity score: 0
Calu-3 [11]
  drug sensitivity score: 2.7
HepG2 [12]
  drug sensitivity score: 0
U2OS [13]
  drug sensitivity score: 0
Vero E6 [14]
  drug sensitivity score: 2.4

## O=C(O)COC(=O)Cc1ccccc1Nc1c(Cl)cccc1Cl [aceclofenac]
Calu-3 [11]
  drug sensitivity score: 0
HepG2 [12]
  drug sensitivity score: 0
U2OS [13]
  drug sensitivity score: 0
Vero E6 [14]
  drug sensitivity score: 0

## Nc1c(CC(=O)O)cccc1C(=O)c1ccccc1 [amfenac]
Caco-2 [1]; 1 nM
  cell viability: 101%
Caco-2 [1]; 10 nM
  cell viability: 97.4%
Caco-2 [1]; 100 nM
  cell viability: 104%
Caco-2 [1]; 1000 nM
  cell viability: 94.1%
Caco-2 [1]; 10000 nM
  cell viability: 97.4%
HepG2 [3]; 1 nM
  cell viability: 103%
HepG2 [3]; 10 nM
  cell viability: 105%
HepG2 [3]; 100 nM
  cell viability: 97.9%
HepG2 [3]; 1000 nM
  cell viability: 106%
HepG2 [3]; 10000 nM
  cell viability: 101%
U2OS [4]; 1 nM
  cell viability: 101%
U2OS [4]; 10 nM
  cell viability: 96%
U2OS [4]; 100 nM
  cell viability: 102%
U2OS [4]; 1000 nM
  cell viability: 97.2%
U2OS [4]; 10000 nM
  cell viability: 104%
Vero E6 [5]; 1 nM
  cell viability: 94.1%
Vero E6 [5]; 10 nM
  cell viability: 102%
Vero E6 [5]; 100 nM
  cell viability: 97.2%
Vero E6 [5]; 1000 nM
  cell viability: 102%
Vero E6 [5]; 10000 nM
  cell viability: 102%
Caco-2 [6]
  relative viability EC50: > 10 µM
HepG2 [7]
  relative viability EC50: > 10 µM
U2OS [8]
  relative viability EC50: > 10 µM
Vero E6 [9]
  relative viability EC50: > 10 µM
Caco-2 [10]
  drug sensitivity score: 0
HepG2 [12]
  drug sensitivity score: 0
U2OS [13]
  drug sensitivity score: 0
Vero E6 [14]
  drug sensitivity score: 0

## Nc1ncn([C@@H]2O[C@H](CO)[C@@H](O)[C@H]2O)c(=O)n1 [azacitidine]
Caco-2 [1]; 1 nM
  cell viability: 87.3%
Caco-2 [1]; 10 nM
  cell viability: 104%
Caco-2 [1]; 100 nM
  cell viability: 96.1%
Caco-2 [1]; 1000 nM
  cell viability: 90.1%
Caco-2 [1]; 10000 nM
  cell viability: 67.9%
Calu-3 [2]; 1 nM
  cell viability: 102%
Calu-3 [2]; 10 nM
  cell viability: 90.9%
Calu-3 [2]; 100 nM
  cell viability: 88.5%
Calu-3 [2]; 1000 nM
  cell viability: 87.2%
Calu-3 [2]; 10000 nM
  cell viability: 64%
HepG2 [3]; 1 nM
  cell viability: 97.9%
HepG2 [3]; 10 nM
  cell viability: 99.7%
HepG2 [3]; 100 nM
  cell viability: 95.9%
HepG2 [3]; 1000 nM
  cell viability: 94.1%
HepG2 [3]; 10000 nM
  cell viability: 57.8%
U2OS [4]; 1 nM
  cell viability: 98%
U2OS [4]; 10 nM
  cell viability: 102%
U2OS [4]; 100 nM
  cell viability: 98.6%
U2OS [4]; 1000 nM
  cell viability: 102%
U2OS [4]; 10000 nM
  cell viability: 98.4%
Vero E6 [5]; 1 nM
  cell viability: 97.3%
Vero E6 [5]; 10 nM
  cell viability: 102%
Vero E6 [5]; 100 nM
  cell viability: 95.9%
Vero E6 [5]; 1000 nM
  cell viability: 90.5%
Vero E6 [5]; 10000 nM
  cell viability: 37.3%
U2OS [8]
  relative viability EC50: > 10 µM
Vero E6 [9]
  relative viability EC50: 1.98 µM
Caco-2 [10]
  drug sensitivity score: 2.6
Calu-3 [11]
  drug sensitivity score: 3.5
HepG2 [12]
  drug sensitivity score: 3.1
U2OS [13]
  drug sensitivity score: 0
Vero E6 [14]
  drug sensitivity score: 5

## CC(C)(C)[C@H]1CC[C@H](CC2=C(O)C(=O)c3ccccc3C2=O)CC1 [buparvaquone]
Caco-2 [1]; 1 nM
  cell viability: 94.1%
Caco-2 [1]; 10 nM
  cell viability: 101%
Caco-2 [1]; 100 nM
  cell viability: 102%
Caco-2 [1]; 1000 nM
  cell viability: 111%
Caco-2 [1]; 10000 nM
  cell viability: 81.3%
Calu-3 [2]; 1 nM
  cell viability: 91.4%
Calu-3 [2]; 10 nM
  cell viability: 104%
Calu-3 [2]; 100 nM
  cell viability: 95%
Calu-3 [2]; 1000 nM
  cell viability: 96.6%
Calu-3 [2]; 10000 nM
  cell viability: 94%
HepG2 [3]; 1 nM
  cell viability: 99.5%
HepG2 [3]; 10 nM
  cell viability: 104%
HepG2 [3]; 100 nM
  cell viability: 98.9%
HepG2 [3]; 1000 nM
  cell viability: 93.9%
HepG2 [3]; 10000 nM
  cell viability: 71.1%
U2OS [4]; 1 nM
  cell viability: 97.4%
U2OS [4]; 10 nM
  cell viability: 100%
U2OS [4]; 100 nM
  cell viability: 99.3%
U2OS [4]; 1000 nM
  cell viability: 102%
U2OS [4]; 10000 nM
  cell viability: 97.6%
Vero E6 [5]; 1 nM
  cell viability: 102%
Vero E6 [5]; 10 nM
  cell viability: 101%
Vero E6 [5]; 100 nM
  cell viability: 105%
Vero E6 [5]; 1000 nM
  cell viability: 82.7%
Vero E6 [5]; 10000 nM
  cell viability: 65.5%
Caco-2 [6]
  relative viability EC50: > 10 µM
Calu-3 [15]
  relative viability EC50: > 10 µM
U2OS [8]
  relative viability EC50: > 10 µM
Caco-2 [10]
  drug sensitivity score: 0.3
Calu-3 [11]
  drug sensitivity score: 0
HepG2 [12]
  drug sensitivity score: 2.2
U2OS [13]
  drug sensitivity score: 0
Vero E6 [14]
  drug sensitivity score: 3.8

## CNC(=O)Oc1cccc2ccccc12 [carbaril]
Calu-3 [11]
  drug sensitivity score: 0
HepG2 [12]
  drug sensitivity score: 0
U2OS [13]
  drug sensitivity score: 0
Vero E6 [14]
  drug sensitivity score: 0
